Experimental data published in patent EP3383875B1, “3-PYRIMIDINYL PYRROLO [2,3-B] PYRIDINE AS ANTICANCER AGENTS AND THE PROCESS FOR THE PREPARATION THEREOF” (Council Of Scientific & Industrial Research, priority 2015, dated 2017).
Where two headings read alike, the source gives them in different places.

How the values were obtained:
CDK-9/Cyclin T1 = CDK-9/Cyclin T1 (Homo sapiens, UniProt P50750); experiment: CDK inhibition assay, CDK-9/Cyclin T1 against substrate peptide, 33P-ATP; type: biochemical; conditions: at 500 nM
Chain of CDK-9/Cyclin T1 (P50750 whole entry): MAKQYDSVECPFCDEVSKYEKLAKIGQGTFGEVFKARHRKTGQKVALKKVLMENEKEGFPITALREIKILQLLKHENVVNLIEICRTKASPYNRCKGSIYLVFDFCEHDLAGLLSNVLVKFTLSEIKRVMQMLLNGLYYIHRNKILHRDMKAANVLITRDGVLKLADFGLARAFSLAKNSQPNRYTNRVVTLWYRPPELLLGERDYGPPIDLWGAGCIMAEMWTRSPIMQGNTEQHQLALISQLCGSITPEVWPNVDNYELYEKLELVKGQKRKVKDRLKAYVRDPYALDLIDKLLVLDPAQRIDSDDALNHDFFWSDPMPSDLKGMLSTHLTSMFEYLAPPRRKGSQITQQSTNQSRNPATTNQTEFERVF
Chain of CDK-9/Cyclin T1 (O60563 whole entry partner): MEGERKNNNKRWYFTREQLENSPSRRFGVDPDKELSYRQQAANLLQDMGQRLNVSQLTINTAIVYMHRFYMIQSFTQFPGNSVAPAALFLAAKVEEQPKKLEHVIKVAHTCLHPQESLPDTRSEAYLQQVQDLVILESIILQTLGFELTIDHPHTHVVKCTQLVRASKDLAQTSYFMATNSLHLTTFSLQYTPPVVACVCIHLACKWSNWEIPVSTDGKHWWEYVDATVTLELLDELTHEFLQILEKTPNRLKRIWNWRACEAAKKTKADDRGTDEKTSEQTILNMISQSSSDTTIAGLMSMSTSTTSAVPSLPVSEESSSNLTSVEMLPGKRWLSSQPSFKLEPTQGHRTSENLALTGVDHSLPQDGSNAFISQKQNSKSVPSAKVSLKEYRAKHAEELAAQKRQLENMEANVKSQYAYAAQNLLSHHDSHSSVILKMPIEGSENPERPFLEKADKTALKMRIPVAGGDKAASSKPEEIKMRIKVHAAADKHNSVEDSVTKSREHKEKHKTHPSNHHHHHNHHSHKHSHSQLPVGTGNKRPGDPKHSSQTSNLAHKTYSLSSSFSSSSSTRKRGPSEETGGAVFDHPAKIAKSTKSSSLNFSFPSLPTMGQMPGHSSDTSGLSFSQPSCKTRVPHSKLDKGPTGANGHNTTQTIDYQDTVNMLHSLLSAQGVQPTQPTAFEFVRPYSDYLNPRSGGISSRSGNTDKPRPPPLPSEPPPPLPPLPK
Protocol: (50-1000 cpm/pmole) and incubated for 30 min at room temperature. Assays were stopped by addition of 5 µl of 0.5 M (3%) orthophosphoric acid and then harvested onto P81 Unifilter plates with a wash buffer of 50 mM orthophosphoric acid.

PC-3 = experiment: MTT assay on cancer cell line PC-3; type: cell-based, human; conditions: Homo sapiens
Protocol: (§1) Cell culture, growth conditions and treatments. […] Different molecules were dissolved in DMSO and were delivered to cell cultures in complete medium.

HCT-116 = experiment: MTT assay on cancer cell line HCT-116; type: cell-based, human; conditions: Homo sapiens
Protocol: as §1

MCF-7 = experiment: MTT assay on cancer cell line MCF-7; type: cell-based, Human; conditions: Homo sapiens
Protocol: as §1

CDK-2/cyclin A = CDK-2/cyclin A (Homo sapiens, UniProt P24941); experiment: CDK inhibition assay, CDK-2/cyclin A against Histone HI, 33P-ATP; type: biochemical; conditions: at 500 nM
Summary of the method: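 CDK-2/cyclin A (5-20 mU) phosphorylating Histone HI (1 mg/ml) in 50 mM Hepes pH 7.5, 100 mM NaCl, 10 mM Mg acetate, 0.02 mM [33P-γ-ATP], 30 min at room temperature. Stopped with orthophosphoric acid, captured on P81 filters for radiometric readout.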

SHSY-5Y = experiment: MTT assay on cancer cell line SHSY-5Y; type: cell-based, human; conditions: Homo sapiens, SH-SY5Y
Protocol: as §1

MDA-MB435 = experiment: MTT assay on cancer cell line MDA-MB435; type: cell-based, Human; conditions: Homo sapiens, MDA-MB-435
Protocol: as §1

[1] = Table-6, read-out: In vitro CDK9 % of inhibition
[2] = read-out: inhibition against CDK9
[3] = Table 8, read-out: In vitro cell inhibition, % of inhibition, PC-3
[4] = at 10µM, Table 8, read-out: In vitro cell inhibition, % of inhibition, HCT-116
[5] = at 10 µM, read-out: inhibition against HCT-116 cell lines
[6] = MCF7, MCF-7, Table 8, read-out: In vitro cell inhibition, % of inhibition, MCF-7
[7] = MCF7, read-out: inhibition against MCF-7 cell lines
[8] = Table-6, read-out: In vitro CDK2 % of inhibition
[9] = read-out: inhibition against CDK2
[10] = SHSY-5Y, Table 8, read-out: In vitro cell inhibition, % of inhibition, SHSY-5Y
[11] = read-out: inhibition against SHSY-5Y cell lines
[12] = MDA-MB435, at 10µM, Table 8, read-out: In vitro cell inhibition, % of inhibition, MDA-MB435
[13] = at 10 µM, read-out: inhibition against MDAMB-435 cell lines
[14] = read-out: inhibition against PC-3 cell lines
[15] = Table-7, read-out: In vitro CDK9 % of inhibition
[16] = Table 9 (for reference), read-out: In vitro cell inhibition, % of inhibition, PC-3
[17] = at 10µM, Table 9 (for reference), read-out: In vitro cell inhibition, % of inhibition, HCT-116
[18] = MCF7, MCF-7, Table 9 (for reference), read-out: In vitro cell inhibition, % of inhibition, MCF-7
[19] = Table-7, read-out: In vitro CDK2 % of inhibition
[20] = SHSY-5Y, Table 9 (for reference), read-out: In vitro cell inhibition, % of inhibition, SHSY-5Y
[21] = MDA-MB435, at 10µM, Table 9 (for reference), read-out: In vitro cell inhibition, % of inhibition, MDA-MB435

Structure (SMILES) | inhibition at 0.5 µM (CDK-9/Cyclin T1; [1]) [%] | inhibition at 0.5 µM (CDK-9/Cyclin T1; [2]) [%] | inhibition at 0.5 µM (CDK-2/cyclin A; [8]) [%] | inhibition at 0.5 µM (CDK-2/cyclin A; [9]) [%] | inhibition at 0.5 µM (CDK-9/Cyclin T1; [15]) [%] | inhibition at 0.5 µM (CDK-2/cyclin A; [19]) [%] | inhibition at 10 µM (PC-3; [3]) [%] | inhibition at 10 µM (HCT-116; [4]) [%] | inhibition at 10 µM (MCF-7; [6]) [%] | inhibition at 10 µM (MCF-7; [7]) [%] | inhibition at 10 µM (SHSY-5Y; [10]) [%] | inhibition at 10 µM (SHSY-5Y; [11]) [%] | inhibition at 10 µM (MDA-MB435; [12]) [%] | further results
Clc1ccc(-c2cnc3[nH]cc(-c4ccnc(NCCc5ccccc5)n4)c3c2)cc1 [1B12, 4-(5-(4-chlorophenyl)-1H-pyrrolo[2,3-b]pyridin-3-yl)-N-phenethylpyrimidin-2-amine] |  | > 70 |  | > 70 | > 70 | > 70 | > 70 | > 50 | > 50 |  | > 70 | > 70 | < 50 | 
Fc1ccc(-c2cnc3[nH]cc(-c4ccnc(NCCc5ccccc5)n4)c3c2)cc1 [1B2, 4-(5-(4-fluorophenyl)-1H-pyrrolo[2,3-b]pyridin-3-yl)-N-phenethylpyrimidin-2-amine] |  | > 50 |  | > 50 | > 50 | > 50 | < 50 | > 50 | > 50 |  | > 70 | > 70 | > 50 | 
CCc1ccccc1-c1cnc2[nH]cc(-c3ccnc(N)n3)c2c1 [1C10, 4-(5-(2-ethylphenyl)-1H-pyrrolo[2,3-b]pyridin-3-yl)pyrimidin-2-amine] |  | > 70 |  | > 70 | > 70 | > 70 |  |  |  | > 70 |  | > 70 |  | inhibition at 10 µM (PC-3; [16]): > 70%; inhibition at 10 µM (HCT-116; [17]): > 70%; inhibition at 10 µM (MCF-7; [18]): > 70%; inhibition at 10 µM (SHSY-5Y; [20]): > 70%; inhibition at 10 µM (MDA-MB435; [21]): > 70%
COc1ccc(-c2cnc3[nH]cc(-c4ccnc(NC5CCCCCC5)n4)c3c2)cc1 [1A51, N-cycloheptyl-4-(5-(4-methoxyphenyl)-1H-pyrrolo[2,3-b]pyridin-3-yl)pyrimidin-2-amine] |  | > 70 |  | > 70 | > 70 | > 70 | < 50 | > 50 | > 70 | > 70 | > 50 |  | < 50 | 
c1ccc(CCNc2nccc(-c3c[nH]c4ncc(-c5cccnc5)cc34)n2)cc1 [1B15, N-phenethyl-4-(5-(pyridin-3-yl)-1H-pyrrolo[2,3-b]pyridin-3-yl)pyrimidin-2-amine] |  | > 70 |  | > 70 | > 70 | > 70 | < 50 | > 50 | > 50 | > 50 | > 70 | > 70 | < 50 | 
FC(F)(F)c1ccc(-c2cnc3[nH]cc(-c4ccnc(NCCc5ccccc5)n4)c3c2)cc1 [1B1, N-phenethyl-4-(5-(4-(trifluoromethyl)phenyl)-1H-pyrrolo[2,3-b]pyridin-3-yl)pyrimidin-2-amine] |  |  |  |  | < 50 | < 50 | > 70 | > 50 | > 50 | > 50 | > 70 | > 70 | < 50 | 

The next lines start with results.

inhibition at 0.5 µM (CDK-9/Cyclin T1; [1]) [%] | inhibition at 0.5 µM (CDK-9/Cyclin T1; [2]) [%] | inhibition at 0.5 µM (CDK-2/cyclin A; [8]) [%] | inhibition at 0.5 µM (CDK-2/cyclin A; [9]) [%] | inhibition at 0.5 µM (CDK-9/Cyclin T1; [15]) [%] | inhibition at 0.5 µM (CDK-2/cyclin A; [19]) [%] | Structure (SMILES) | inhibition at 10 µM (PC-3; [3]) [%] | inhibition at 10 µM (HCT-116; [4]) [%] | inhibition at 10 µM (MCF-7; [6]) [%] | inhibition at 10 µM (MCF-7; [7]) [%] | inhibition at 10 µM (SHSY-5Y; [10]) [%] | inhibition at 10 µM (SHSY-5Y; [11]) [%] | inhibition at 10 µM (MDA-MB435; [12]) [%] | further results
> 70 | > 70 | > 70 | > 70 |  |  | Fc1cccc(-c2cnc3[nH]cc(-c4ccnc(NC5CC5)n4)c3c2)c1 [1A5, N-cyclopropyl-4-(5-(3-fluorophenyl)-1H-pyrrolo[2,3-b]pyridin-3-yl)pyrimidin-2-amine] | > 70 | > 70 | > 70 | > 70 | > 70 | > 70 | > 70 | inhibition at 10 µM (HCT-116; [5]): > 70%; inhibition at 10 µM (MDA-MB435; [13]): > 70%
> 50 | > 50 | > 50 | > 50 |  |  | c1cncc(-c2cnc3[nH]cc(-c4ccnc(NC5CC5)n4)c3c2)c1 [1A15, N-cyclopropyl-4-(5-(pyridin-3-yl)-1H-pyrrolo[2,3-b]pyridin-3-yl)pyrimidin-2-amine] | > 50 | > 70 | > 70 | > 70 | > 70 | > 70 | > 70 | inhibition at 10 µM (PC-3; [14]): > 50%; inhibition at 10 µM (HCT-116; [5]): > 70%; inhibition at 10 µM (MDA-MB435; [13]): > 70%
 | > 70 |  | > 70 | > 70 | > 70 | Cc1cccc(-c2cnc3[nH]cc(-c4ccnc(N)n4)c3c2)c1 [1C7, 4-(5-(m-tolyl)-1H-pyrrolo[2,3-b]pyridin-3-yl)pyrimidin-2-amine] |  |  |  | > 50 |  | > 70 |  | inhibition at 10 µM (PC-3; [16]): > 50%; inhibition at 10 µM (HCT-116; [17]): > 70%; inhibition at 10 µM (MCF-7; [18]): > 50%; inhibition at 10 µM (SHSY-5Y; [20]): > 70%; inhibition at 10 µM (MDA-MB435; [21]): > 70%
 | > 70 |  | > 70 | > 70 | > 70 | c1cncc(-c2cnc3[nH]cc(-c4ccnc(NC5CCCCCC5)n4)c3c2)c1 [1A55, N-cycloheptyl-4-(5-(pyridin-3-yl)-1H-pyrrolo[2,3-b]pyridin-3-yl)pyrimidin-2-amine] | > 50 | > 50 | < 50 | < 50 | > 70 | > 70 | > 50 | 
 |  |  |  | > 50 | > 50 | Fc1cccc(-c2cnc3[nH]cc(-c4ccnc(NCCc5ccccc5)n4)c3c2)c1 [1B5, 4-(5-(3-fluorophenyl)-1H-pyrrolo[2,3-b]pyridin-3-yl)-N-phenethylpyrimidin-2-amine] | > 50 | > 50 | > 50 | > 50 | > 70 | > 70 | > 50 | inhibition at 10 µM (PC-3; [14]): > 50%
> 50 |  | > 50 |  |  |  | Fc1ccc(-c2cnc3[nH]cc(-c4ccnc(NC5CCCC5)n4)c3c2)cc1 [1A22, N-cyclopentyl-4-(5-(4-fluorophenyl)-1H-pyrrolo[2,3-b]pyridin-3-yl)pyrimidin-2-amine] | > 50 | > 50 | > 50 | > 50 | > 70 | > 70 | < 50 | 
> 50 |  | > 70 |  |  |  | FC(F)(F)Oc1ccc(-c2cnc3[nH]cc(-c4ccnc(NC5CCCC5)n4)c3c2)cc1 [1A23, N-cyclopentyl-4-(5-(4-(trifluoromethoxy)phenyl)-1H-pyrrolo[2,3-b]pyridin-3-yl)pyrimidin-2-amine] | > 50 | > 50 | > 50 | > 50 | > 70 | > 70 | < 50 | 
> 50 | > 50 | > 50 | > 50 |  |  | Fc1ccc(-c2cnc3[nH]cc(-c4ccnc(NC5CCCCCC5)n4)c3c2)cc1 [1A42, N-cycloheptyl-4-(5-(4-fluorophenyl)-1H-pyrrolo[2,3-b]pyridin-3-yl)pyrimidin-2-amine] | > 50 | > 50 | < 50 | < 50 | > 70 | > 70 | > 70 | inhibition at 10 µM (PC-3; [14]): > 50%
